# PMC9873307, “Methylone, a rapid acting entactogen with robust anxiolytic and antidepressant-like activity” (Frontiers in Psychiatry, 2023)
# Read-outs that look alike come from different tables or passages of the source.
# Legend:
# [1] = binge-dosing regimen; cited from earlier work
# male Sprague Dawley rats = assay: Open field test (OFT): locomotor activity and time in center; type: in vivo, rat
# Procedure: Male Sprague Dawley rats (Charles River Laboratories) weighing 180–200 g on arrival, were used for all behavioral studies, which took place at Melior Discovery (Exton, PA, USA). Rats acclimated to their home cages for at least 1 week before testing, were maintained in a controlled environment on a 12 h light/dark cycle, with no more than 2 rats per cage. Animals received ad libitum access to standard rodent chow and water and were assigned randomly to treatment groups. All animal use and procedures were in accordance with established protocols approved by the Melior IACUC committee, Melior Standard Operation Procedures (SOP), and Transcend Therapeutics. Distinct cohorts of animals were used for each experiment/Figure presented in this manuscript.
# Methylone HCl (0.5–30 mg/kg; Cayman Chemical) or Fluoxetine HCl (10 mg/kg; Sigma-Aldrich) were formulated in sterile 0.9% saline vehicle before IP administration. Control animals received saline vehicle. Methylone or saline was administered 30 min prior to FST or OFT testing sessions. Fluoxetine or saline were administered 23.5, 5, and 1 h prior to testing, consistent with previous studies ([19]).
# All studies were performed by an experimenter blind to treatment group and according to standard protocols at Melior Discovery (Exton, PA, USA). The OFT was used to assess both locomotor activity and anxiety-like behavior. The OFT was run in a standard rat OFA chamber (17 ^^′′ × 17 ^^′′ × 12 ^^′′ , Med Associates). After habituation to the testing room and drug injection, rats were assessed for 30 min in the OFT using an automated activity monitoring system (MedAssociates). Locomotor activity was measured by recording the total ambulatory distance traveled (cm), reported in 5-min bins for the duration of the 30 min testing period. The center of the open field was defined as a 12 ^^′′ square, a predefined center setting on the MedAssociates analysis software. Time spent in the center of the open field, an anxiolytic measure, was also recorded for the 30 min testing period.
# healthy volunteers = conditions: cited from earlier work
# mice = system: mice; design: method as in PMID 23603357; conditions: 3–4 doses of 25 mg/kg over a 2-day period, 3 days after dosing; cited from earlier work
# [2] = system: other 5-HT, NE, or DA receptors; design: method as in PMID 31063768; conditions: cited from earlier work
# PTSD patients = system: PTSD patients; design: method as in earlier work; conditions: retrospective clinical case series; cited from earlier work
# brain serotonin = conditions: repeated doses; cited from earlier work
# [3] = Pharmacokinetics in plasma and brain after IP dosing; type: in vivo; conditions: rat; for Kp: brain and plasma; for Kp / MRT last / half-life: ip
# Procedure: Pharmacokinetics studies were carried out at WuXi Apptec, Inc. (Cranbury, NJ, USA) using standard protocols. All animal use and procedures were approved by the WuXi Apptec, Inc., IACUC. Briefly, terminal blood and brain samples were collected from 6 to 8 week old male Sprague Dawley rats (Hilltop Lab Animals, Inc., Scottsdale, PA, USA) at 0.25, 0.5, 1, 2, 4, and 8 h (N = 3 per group per time point) for the determination of plasma concentrations of methylone following intraperitoneal (IP) dosing of 5, 10, or 15 mg/kg methylone. Since these were terminal collections, three independent rats per group were used for each time point in a single PK curve from which PK parameters (Cmax, AUC, etc.) were generated. Samples were collected into K2EDTA tubes on ice and centrifuged at 3000 × g at 4°C for 5 min within 30 min of collection. Plasma samples were stored at −80°C until analysis by liquid chromatography tandem mass spectrometry (LC-MS/MS). The bioanalytical assay provided a lower limit of quantification (LLOQ) of 1 ng/mL and an upper limit of quantification (ULOQ) of 3000 ng/mL for methylone. The plasma concentration-time data were analyzed using Phoenix WinNonlin (version 8.3) to characterize the PK properties of the analyte. The non-compartmental analysis model and the linear/log trapezoidal method were applied to the calculation of the PK parameters.
# [4] = system: vesicular monoamine transporter 2 (VMAT2); design: method as in PMID 10528135; conditions: compared with MDMA; cited from earlier work
# [5] = system: serotonin receptor 1A (5-HTR1A); design: method as in PMID 23583454; conditions: not all reports support activity ([43]); cited from earlier work
# [6] = male, Sprague Dawley, plasma, 5 mg/kg IP
# [7] = male, Sprague Dawley, plasma, 10 mg/kg IP
# [8] = male, Sprague Dawley, plasma, 15 mg/kg IP
compound,measurement,setting,value
"CNC(C)C(=O)c1ccc2c(c1)OCO2 (stereo not drawn) [methylone, 3,4-methylenedioxy-N-methylcathinone]",effect on anxiety,[1],anxiogenic effects
same,"distance traveled, first 5 min","male Sprague Dawley rats; methylone 0.5–10 mg/kg IP, 30 min before, Figure 4C",did not affect locomotor activity
same,"distance traveled, first 5 min","male Sprague Dawley rats; methylone 0.5–30 mg/kg, retest 24 h post-dose, all groups, Figure 4D",locomotor activity returned to baseline
same,time spent in the center,"male Sprague Dawley rats; methylone 5–30 mg/kg, 30 min after dosing, 30 min test, Figure 5A",significantly increased time spent in the center
same,"distance traveled, first 5 min","male Sprague Dawley rats; methylone 15–30 mg/kg IP, 30 min before, Figure 4C",significantly increased distance traveled
same,"distance traveled over 30-min session, 5-min bins","male Sprague Dawley rats; methylone 15–30 mg/kg IP, Figure 4F",increased distance traveled for the duration of the testing session
same,tolerability in two Phase 1 studies,healthy volunteers; healthy volunteers,well-tolerated
same,tolerability in phase 1 clinical study,healthy volunteers; human doses approximately 100–150 mg,"well tolerated, with no severe adverse events reported"
same,tolerability in clinical studies,healthy volunteers; human,well tolerated
same,immobility in the FST,mice,increased immobility
same,"affinity for other 5-HT, NE, or DA receptors",[2],"weak, if any, affinity"
same,effect on symptoms of PTSD,PTSD patients,alleviates symptoms of PTSD
same,depletion of brain serotonin,brain serotonin,do not deplete brain serotonin
same,plasma concentration,[3]; after 5 mg/kg dose,approximately 8 μM
same,plasma concentration,[3]; after 10 mg/kg dose,~18 µM
same,AUC0–last,"[3]; brain, 5 mg/kg IP",1661 ng·h/g
same,Tlast,"[3]; brain, 5 mg/kg IP",4.00 h
same,AUC0–last,"[3]; brain, 10 mg/kg IP",5576 ng·h/g
same,Tlast,"[3]; brain, 10 mg/kg IP",4.00 h
same,AUC0–last,"[3]; brain, 15 mg/kg IP",13201 ng·h/g
same,Tlast,"[3]; brain, 15 mg/kg IP",8.00 h
same,Kp,"[3]; male, Sprague Dawley, 5 mg/kg, 5 mg/kg IP, read-out: AUC ratio (brain: plasma)",1.83
same,Kp,"[3]; male, Sprague Dawley, 10 mg/kg, 10 mg/kg IP, read-out: AUC ratio (brain: plasma)",1.72
same,Kp,"[3]; male, Sprague Dawley, 15 mg/kg, 15 mg/kg IP, read-out: AUC ratio (brain: plasma)",1.8
same,Kp,"[3]; male, Sprague Dawley, 15 mg/kg, across 5, 10, 15 mg/kg IP, read-out: brain to plasma AUC ratio",~1.8
same,MRT last,"[3]; male, Sprague Dawley, brain, 5 mg/kg, brain, 5 mg/kg IP, read-out: MRT0–last",41.8 min
same,half-life,"[3]; male, Sprague Dawley, brain, 5 mg/kg, brain, 5 mg/kg IP, read-out: T1/2 (converted)",41.5 min
same,MRT last,"[3]; male, Sprague Dawley, brain, 10 mg/kg, brain, 10 mg/kg IP, read-out: MRT0–last",61.8 min
same,half-life,"[3]; male, Sprague Dawley, brain, 10 mg/kg, brain, 10 mg/kg IP, read-out: T1/2 (converted)",36.4 min
same,MRT last,"[3]; male, Sprague Dawley, brain, 15 mg/kg, brain, 15 mg/kg IP, read-out: MRT0–last",60.6 min
same,half-life,"[3]; male, Sprague Dawley, brain, 15 mg/kg, brain, 15 mg/kg IP, read-out: T1/2 (converted)",53 min
same,MRT last,"[3]; male, Sprague Dawley, plasma, 5 mg/kg, plasma, 5 mg/kg IP, read-out: MRT0–last",40 min
same,half-life,"[3]; male, Sprague Dawley, plasma, 5 mg/kg, plasma, 5 mg/kg IP, read-out: T1/2 (converted)",35.9 min
same,MRT last,"[3]; male, Sprague Dawley, plasma, 10 mg/kg, plasma, 10 mg/kg IP, read-out: MRT0–last",64.2 min
same,half-life,"[3]; male, Sprague Dawley, plasma, 10 mg/kg, plasma, 10 mg/kg IP, read-out: T1/2 (converted)",40.4 min
same,MRT last,"[3]; male, Sprague Dawley, plasma, 15 mg/kg, across 5, 10, 15 mg/kg IP, read-out: mean residence time (MRT0–last)",42 to 67.8 min
same,half-life,"[3]; male, Sprague Dawley, plasma, 15 mg/kg, across 5, 10, 15 mg/kg IP, read-out: terminal elimination half-life (T1/2)",36 to 48 min
same,MRT last,"[3]; male, Sprague Dawley, plasma, 15 mg/kg, plasma, 15 mg/kg IP, read-out: MRT0–last",67.8 min
same,half-life,"[3]; male, Sprague Dawley, plasma, 15 mg/kg, plasma, 15 mg/kg IP, read-out: T1/2 (converted)",48.7 min
same,Cmax,"[3]; male, Sprague Dawley, brain, 5 mg/kg IP",3510 ng/g
same,Cmax,"[3]; male, Sprague Dawley, brain, 10 mg/kg IP",8020 ng/g
same,Cmax,"[3]; male, Sprague Dawley, brain, 15 mg/kg IP",20000 ng/g
same,AUC(0-t),[3]; [6],0.908 µg·h/mL
same,Cmax,[3]; [6],1.98 µg/mL
same,AUC(0-t),[3]; [7],3.24 µg·h/mL
same,Cmax,[3]; [7],4.51 µg/mL
same,AUC(0-t),[3]; [8],7.32 µg·h/mL
same,Cmax,[3]; [8],8.47 µg/mL
same,Tmax,"[3]; male, Sprague Dawley, plasma, 5, 10 or 15 mg/kg IP",15 min
same,Tlast,"[3]; plasma, 5 mg/kg IP",4.00 h
same,Tlast,"[3]; plasma, 10 mg/kg IP",8.00 h
same,Tlast,"[3]; plasma, 15 mg/kg IP",8.00 h
same,lower potency at VMAT2 than MDMA,[4],> 10 fold
same,activity at 5-HTR1A,[5],partial agonist
